Patent US5597835A, “Acyl CoA:cholesterol acyltransferase inhibitors” (Korea Institute of Science and Technology, priority 1993, dated 1997)
pIC50: −log10 of the molar value. Each block holds one compound with its values, some of them ahead of it.

What was measured:
[1] = target: T1, acyl CoA:cholesterol acyltransferase (ACAT) (Rattus norvegicus, UniProt Q7TQM4); assay: ACAT inhibiting activity (modified method of Tabas et al.; [1-14C] oleoyl-CoA, rat liver microsomal enzyme); format: biochemical; settings: 10 μM [1-14C] oleoyl-CoA, pH 7.4, 37° C., 15 minutes, read-out: IC50 (inhibitor concentration which reduces the activity of ACAT by 50%)
T1 construct: microsomal enzyme (10 mg/ml of protein) derived from rat liver tissue; from tissue; host or cells: rat liver microsomes
T1 sequence (Q7TQM4 1-524): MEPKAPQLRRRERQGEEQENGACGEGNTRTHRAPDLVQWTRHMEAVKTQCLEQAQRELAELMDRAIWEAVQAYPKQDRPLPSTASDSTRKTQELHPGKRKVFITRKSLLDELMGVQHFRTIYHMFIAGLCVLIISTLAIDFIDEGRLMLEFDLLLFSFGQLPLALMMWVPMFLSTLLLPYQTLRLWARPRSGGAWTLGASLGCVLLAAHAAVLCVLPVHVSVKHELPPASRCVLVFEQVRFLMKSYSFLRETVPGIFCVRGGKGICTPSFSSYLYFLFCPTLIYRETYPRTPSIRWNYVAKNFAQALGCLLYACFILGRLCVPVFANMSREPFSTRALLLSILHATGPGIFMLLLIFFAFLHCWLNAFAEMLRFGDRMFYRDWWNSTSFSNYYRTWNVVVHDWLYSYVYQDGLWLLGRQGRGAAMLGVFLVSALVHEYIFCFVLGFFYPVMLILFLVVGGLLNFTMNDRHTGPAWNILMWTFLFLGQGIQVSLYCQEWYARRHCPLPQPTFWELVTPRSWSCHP
Protocol: ACAT activity was determined as follows in accordance with a modified method of Tabas et al. described in J. Biol. Chem., 261, 3147-3154 (1986).
10 μl of sample, 4.0 μl of microsomal enzyme (10 mg/ml of protein) derived from rat liver tissue, 20 μl of analysis buffer(0.5M KH2 PO4, 10 mM dithiothreitol (DTT), pH 7.4), 15 μl of 40 mg/ml bovine serum albumin(essentially free of fatty acids), 2 μl of 20 mg/ml cholesterol and 41 μl of H2 O were mixed together and the resulting mixture was reacted at 37° C. for 15 minutes. 8 μl of [1-^14 C] oleoyl-CoA(0.05 μCi, final concentration of 10 μM) was added to the mixture and the reaction mixture was reacted at 37° C. for 15 minutes.
1 ml of isopropanol-heptane (4:1(v/v)) was added to the mixture to stop the reaction, 0.6 ml of heptane and 0.4 ml of said analysis buffer(5-fold diluted) were added thereto and the resulting mixture was centrifuged at 2,000 g for 2 minutes to obtain the supernatant.
5 ml of scintillation cocktail lipoluma (Lumac Co., U.S.A.) was added to 100 μl of the supernatant obtained above and enzyme activity was determined by detecting the amount of cholesteryl ester in the mixture based on the unit of count per minute (CPM) by using a liquid scintillation counter.
ACAT inhibiting activity was calculated in accordance with the following equation: [formula] wherein the blank composition had the same composition as the above sample but without enzyme and GERI-BP001 or its derivatives, and was reacted at 37° C.; and the control had the same composition as the above sample without GERI-BP001 or its derivatives and was reacted at 37° C. for 15 min.

female ICR mice = assay: Toxicity of GERI-BP001 in mice (subcutaneous injection); format: in vivo, mouse; settings: 500 mg/kg
Protocol: 5 female ICR mice weighing 23 g were administered via subcutaneous injection with 500 mg/kg of GERI-BP001.

rats = assay: Acute toxic effect in rats; format: in vivo, rat; settings: dose and route not stated
[2] = Solubility (physicochemical properties)

pIC50 [1]: 4.10 to 4.15
SMILES: CCC(=O)O[C@H]1CC[C@]2(C)[C@H]3Cc4c(cc(-c5cccnc5)oc4=O)O[C@]3(C)CC[C@H]2C1(C)C [GERI-BP001-B]

pIC50 [1]: 3.92 to 3.96
SMILES: CC(=O)O[C@H]1CC[C@]2(C)[C@H]3Cc4c(cc(-c5ccc[n+]([O-])c5)oc4=O)O[C@]3(C)CC[C@H]2C1(C)C [GERI-BP001-C]

pIC50 [1]: 3.82 to 3.85
SMILES: CC(=O)O[C@H]1CC[C@]2(C)[C@H]3C(O)c4c(cc(-c5cccnc5)oc4=O)O[C@]3(C)CC[C@H]2C1(C)C (stereo partly shown) [GERI-BP001-A]

SMILES: CC(=O)O[C@H]1CC[C@]2(C)[C@H]3Cc4c(cc(-c5cccnc5)oc4=O)O[C@]3(C)CC[C@H]2C1(C)C [GERI-BP001]
pIC50 [1]: 4.10 to 4.15
acute toxicity (judgement) (female ICR mice; female ICR mice, subcutaneous injection): does not cause acute toxicity
mortality (female ICR mice; female ICR mice, subcutaneous injection, until 4 days after administration): none of the mice was dead
activities of mice (female ICR mice; mouse, in vivo, sc): increased
excited state (female ICR mice; mouse, in vivo, sc): an excited state was induced
time after administration at which excited state was induced (female ICR mice; mouse, in vivo, sc): about 15 minutes
time after administration at which symptoms disappeared (female ICR mice; mouse, in vivo, sc): about 2 hours
acute toxic effect (rats): acute toxic effect was not found
Solubility ([2]; MeOH, CHCl3): soluble
Solubility ([2]; n-hexane, H2O): insoluble
